Measured values from the kinase profiling compilation of Christmann-Franck et al. (2016).

Tests used:
Assay in all cases: radiometric filter-binding kinase assay, Kinase HotSpot
Conditions in all cases: compound 0.5 µM; ATP 10 µM
[1] = molecular target: ALK (human) (UniProt Q9UM73)
[2] = molecular target: BLK (human) (UniProt P51451)
[3] = molecular target: BRSK2 (human) (UniProt Q8IWQ3)
[4] = molecular target: CAMKK2 (human) (UniProt Q96RR4)
[5] = molecular target: CDK6 CCND3 (human) (UniProt P30281+Q00534)
[6] = molecular target: CLK2 (human) (UniProt P49760)
[7] = molecular target: CSK (human) (UniProt P41240)
[8] = molecular target: CSNK2A1 (human) (UniProt P68400)
[9] = molecular target: DAPK2 (human) (UniProt Q9UIK4)
[10] = molecular target: DDR2 (human) (UniProt Q16832)
[11] = molecular target: DYRK1A (human) (UniProt Q13627)
[12] = molecular target: EPHA3 (human) (UniProt P29320)
[13] = molecular target: ERBB4 (human) (UniProt Q15303)
[14] = molecular target: FGFR1 (human) (UniProt P11362)
[15] = molecular target: FGFR2 (human) (UniProt P21802)
[16] = molecular target: FGFR3 (human) (UniProt P22607)
[17] = molecular target: GRK6 (human) (UniProt P43250)
[18] = molecular target: GSK3A (human) (UniProt P49840)
[19] = molecular target: HCK (human) (UniProt P08631)
[20] = molecular target: IRAK1 (human) (UniProt P51617)
[21] = molecular target: JAK2 JH1 JH2 (human) (UniProt O60674)
[22] = molecular target: LTK (human) (UniProt P29376)
[23] = molecular target: MAP3K7 TAB1 (human) (UniProt O43318+Q15750)
[24] = molecular target: MARK2 (human) (UniProt Q7KZI7)
[25] = molecular target: MLTK (human) (UniProt Q9NYL2)
[26] = molecular target: MYLK (human) (UniProt Q15746)
[27] = molecular target: NEK4 (human) (UniProt P51957)
[28] = molecular target: PKN2 (human) (UniProt Q16513)
[29] = molecular target: PLK2 (human) (UniProt Q9NYY3)
[30] = molecular target: PRKACA (human) (UniProt P17612)
[31] = molecular target: PRKCA (human) (UniProt P17252)
[32] = molecular target: PRKX (human) (UniProt P51817)
[33] = molecular target: RPS6KA4 KD2 (human) (UniProt O75676)
[34] = molecular target: RPS6KA6 KD1 KD2 (human) (UniProt Q9UK32)
[35] = molecular target: SIK2 (human) (UniProt Q9H0K1)
[36] = molecular target: SRPK1 (human) (UniProt Q96SB4)
[37] = molecular target: STK16 (human) (UniProt O75716)
[38] = molecular target: STK39 (human) (UniProt Q9UEW8)
[39] = molecular target: TTK (human) (UniProt P33981)
[40] = molecular target: WNK2 (human) (UniProt Q9Y3S1)
[41] = molecular target: WNK3 (human) (UniProt Q9BYP7)
[42] = molecular target: ZAP70 (human) (UniProt P43403)

Chain of RPS6KA6 KD1 KD2 (human) (Q9UK32 whole entry, looked up): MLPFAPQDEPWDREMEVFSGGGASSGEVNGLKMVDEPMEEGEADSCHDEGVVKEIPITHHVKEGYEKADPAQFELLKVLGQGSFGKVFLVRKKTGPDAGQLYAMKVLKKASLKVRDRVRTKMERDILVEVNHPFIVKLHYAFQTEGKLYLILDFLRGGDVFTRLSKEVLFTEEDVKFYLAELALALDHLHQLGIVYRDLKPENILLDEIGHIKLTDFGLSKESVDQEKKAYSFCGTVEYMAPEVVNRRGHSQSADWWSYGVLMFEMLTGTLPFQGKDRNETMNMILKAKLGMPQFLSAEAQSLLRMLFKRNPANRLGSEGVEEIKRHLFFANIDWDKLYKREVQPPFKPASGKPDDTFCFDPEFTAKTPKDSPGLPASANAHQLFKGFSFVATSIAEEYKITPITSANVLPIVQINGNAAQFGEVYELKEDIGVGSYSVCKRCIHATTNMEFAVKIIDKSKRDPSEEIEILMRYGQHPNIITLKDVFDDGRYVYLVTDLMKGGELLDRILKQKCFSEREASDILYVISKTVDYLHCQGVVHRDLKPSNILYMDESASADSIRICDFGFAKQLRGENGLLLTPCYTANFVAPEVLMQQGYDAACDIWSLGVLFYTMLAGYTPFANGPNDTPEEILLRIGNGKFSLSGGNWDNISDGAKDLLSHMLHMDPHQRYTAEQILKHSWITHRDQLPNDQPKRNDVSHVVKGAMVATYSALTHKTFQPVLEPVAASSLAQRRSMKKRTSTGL
Chain of PLK2 (human) (Q9NYY3 whole entry, looked up): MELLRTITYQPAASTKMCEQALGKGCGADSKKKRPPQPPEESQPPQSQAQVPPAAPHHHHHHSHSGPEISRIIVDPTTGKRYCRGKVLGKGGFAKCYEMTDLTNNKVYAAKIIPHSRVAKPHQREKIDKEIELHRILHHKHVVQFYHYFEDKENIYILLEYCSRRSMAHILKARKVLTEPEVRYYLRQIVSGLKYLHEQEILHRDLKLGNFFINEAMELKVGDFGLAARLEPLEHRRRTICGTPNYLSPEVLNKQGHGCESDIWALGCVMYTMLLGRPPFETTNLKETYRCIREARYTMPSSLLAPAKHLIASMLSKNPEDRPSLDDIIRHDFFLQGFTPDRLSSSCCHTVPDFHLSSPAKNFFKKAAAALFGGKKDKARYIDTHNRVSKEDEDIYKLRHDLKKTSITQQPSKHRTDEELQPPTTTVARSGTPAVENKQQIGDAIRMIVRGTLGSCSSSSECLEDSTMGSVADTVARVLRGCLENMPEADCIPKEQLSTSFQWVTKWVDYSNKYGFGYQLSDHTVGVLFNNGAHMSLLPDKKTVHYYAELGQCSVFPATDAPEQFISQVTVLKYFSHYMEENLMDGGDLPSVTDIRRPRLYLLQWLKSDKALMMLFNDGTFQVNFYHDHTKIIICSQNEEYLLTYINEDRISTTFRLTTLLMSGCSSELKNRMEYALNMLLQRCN
Chain of LTK (human) (P29376 whole entry, looked up): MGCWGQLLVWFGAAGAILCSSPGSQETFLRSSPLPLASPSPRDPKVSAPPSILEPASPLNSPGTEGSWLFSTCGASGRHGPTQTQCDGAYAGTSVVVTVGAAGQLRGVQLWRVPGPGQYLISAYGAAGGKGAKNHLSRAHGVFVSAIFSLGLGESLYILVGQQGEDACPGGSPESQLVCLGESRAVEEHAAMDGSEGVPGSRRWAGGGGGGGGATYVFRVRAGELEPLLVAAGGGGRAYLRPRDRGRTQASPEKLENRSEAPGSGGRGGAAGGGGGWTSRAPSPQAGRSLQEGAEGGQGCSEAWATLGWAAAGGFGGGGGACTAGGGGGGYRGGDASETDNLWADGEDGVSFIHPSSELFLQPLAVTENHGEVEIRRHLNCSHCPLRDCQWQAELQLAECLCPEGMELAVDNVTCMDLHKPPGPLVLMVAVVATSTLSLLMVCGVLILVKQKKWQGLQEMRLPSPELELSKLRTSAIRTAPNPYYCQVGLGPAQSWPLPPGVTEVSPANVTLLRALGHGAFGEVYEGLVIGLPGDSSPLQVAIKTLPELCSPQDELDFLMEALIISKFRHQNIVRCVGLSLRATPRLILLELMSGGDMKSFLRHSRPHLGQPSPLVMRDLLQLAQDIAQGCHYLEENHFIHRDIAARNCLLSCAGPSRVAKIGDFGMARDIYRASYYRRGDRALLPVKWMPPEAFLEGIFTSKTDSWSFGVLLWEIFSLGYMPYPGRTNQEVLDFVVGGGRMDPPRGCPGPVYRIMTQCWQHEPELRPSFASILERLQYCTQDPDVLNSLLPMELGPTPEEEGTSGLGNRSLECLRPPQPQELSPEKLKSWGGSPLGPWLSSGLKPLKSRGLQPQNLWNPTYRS
Chain of IRAK1 (human) (P51617 whole entry, looked up): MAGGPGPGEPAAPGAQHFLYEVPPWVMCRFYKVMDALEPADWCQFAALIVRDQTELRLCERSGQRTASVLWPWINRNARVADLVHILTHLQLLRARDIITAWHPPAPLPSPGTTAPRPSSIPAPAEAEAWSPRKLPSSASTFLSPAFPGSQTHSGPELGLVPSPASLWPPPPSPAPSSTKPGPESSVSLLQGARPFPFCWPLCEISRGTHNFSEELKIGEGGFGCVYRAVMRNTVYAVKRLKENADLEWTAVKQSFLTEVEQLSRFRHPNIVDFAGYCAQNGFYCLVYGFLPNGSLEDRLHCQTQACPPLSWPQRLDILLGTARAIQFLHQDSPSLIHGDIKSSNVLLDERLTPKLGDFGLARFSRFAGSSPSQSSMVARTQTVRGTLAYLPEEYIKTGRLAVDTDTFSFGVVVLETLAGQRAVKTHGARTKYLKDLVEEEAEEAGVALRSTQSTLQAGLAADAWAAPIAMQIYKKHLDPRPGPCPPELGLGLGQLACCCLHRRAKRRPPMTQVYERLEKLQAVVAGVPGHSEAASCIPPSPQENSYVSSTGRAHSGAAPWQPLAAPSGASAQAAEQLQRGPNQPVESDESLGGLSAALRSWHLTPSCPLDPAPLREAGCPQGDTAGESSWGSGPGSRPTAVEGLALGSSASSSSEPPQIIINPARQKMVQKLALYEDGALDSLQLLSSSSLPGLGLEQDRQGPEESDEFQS
Chain of CSNK2A1 (human) (P68400 whole entry, looked up): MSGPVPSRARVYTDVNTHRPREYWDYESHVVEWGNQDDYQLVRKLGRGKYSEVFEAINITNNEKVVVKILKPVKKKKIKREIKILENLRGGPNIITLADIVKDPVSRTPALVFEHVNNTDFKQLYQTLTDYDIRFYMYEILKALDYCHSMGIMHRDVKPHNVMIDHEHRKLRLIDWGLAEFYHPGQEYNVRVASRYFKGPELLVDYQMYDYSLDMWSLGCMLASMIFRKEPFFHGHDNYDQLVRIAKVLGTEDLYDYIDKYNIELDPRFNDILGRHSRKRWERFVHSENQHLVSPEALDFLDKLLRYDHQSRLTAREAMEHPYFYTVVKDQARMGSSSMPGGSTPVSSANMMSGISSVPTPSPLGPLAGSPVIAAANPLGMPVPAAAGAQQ
Chain of FGFR2 (human) (P21802 whole entry, looked up): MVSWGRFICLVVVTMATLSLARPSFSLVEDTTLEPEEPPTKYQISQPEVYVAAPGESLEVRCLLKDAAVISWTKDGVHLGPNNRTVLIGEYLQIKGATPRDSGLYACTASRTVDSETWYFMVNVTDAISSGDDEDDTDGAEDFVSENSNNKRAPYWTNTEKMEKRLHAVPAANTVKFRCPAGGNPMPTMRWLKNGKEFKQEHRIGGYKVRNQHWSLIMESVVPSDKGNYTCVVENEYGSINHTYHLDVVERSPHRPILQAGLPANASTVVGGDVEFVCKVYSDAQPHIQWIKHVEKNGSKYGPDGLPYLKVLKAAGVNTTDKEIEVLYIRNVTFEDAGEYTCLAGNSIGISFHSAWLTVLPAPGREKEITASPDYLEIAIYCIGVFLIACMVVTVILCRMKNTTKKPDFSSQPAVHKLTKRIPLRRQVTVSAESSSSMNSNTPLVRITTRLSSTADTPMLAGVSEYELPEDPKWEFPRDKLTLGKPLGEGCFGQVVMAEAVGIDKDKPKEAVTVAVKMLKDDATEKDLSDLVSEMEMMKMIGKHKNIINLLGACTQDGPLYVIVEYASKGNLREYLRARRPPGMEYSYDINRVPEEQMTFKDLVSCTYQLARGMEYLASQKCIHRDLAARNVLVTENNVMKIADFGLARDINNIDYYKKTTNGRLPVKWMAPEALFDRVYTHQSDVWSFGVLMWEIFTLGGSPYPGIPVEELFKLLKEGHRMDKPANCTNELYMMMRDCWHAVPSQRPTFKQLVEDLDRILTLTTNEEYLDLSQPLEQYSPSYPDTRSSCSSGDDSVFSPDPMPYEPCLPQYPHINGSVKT

Compound `CC(C)n1cnc2c(Nc3cccc(Cl)c3)nc(NCCO)nc21` has a residual activity [1] of 91.8%, a residual activity [2] of 91.2% and a residual activity [3] of 95%. It also gave a residual activity [4] of 68.2%, a residual activity [5] of 89.7% and a residual activity [6] of 25%. For the same compound, the residual activity [7] was 98.2%, the residual activity [8] was 83.8% and the residual activity [9] was 92.8%. It also gave a residual activity [10] of 93.3%, a residual activity [11] of 88.6% and a residual activity [12] of 90.3%. It also gave a residual activity [13] of 101%, a residual activity [14] of 84.2% and a residual activity [15] of 94.5%. It also gave a residual activity [16] of 95.1%, a residual activity [17] of 88.8% and a residual activity [18] of 103%. The residual activity [19] was 78%, the residual activity [20] was 101% and the residual activity [21] was 101%. It also gave a residual activity [22] of 85.3%, a residual activity [23] of 92.7% and a residual activity [24] of 98.7%. For the same compound, the residual activity [25] was 96.6%, the residual activity [26] was 87.8% and the residual activity [27] was 89.1%. The residual activity [28] was 90.8%, the residual activity [29] was 95.9% and the residual activity [30] was 99.5%. The residual activity [31] was 78.6%, the residual activity [32] was 96.4% and the residual activity [33] was 83.8%. For the same compound, the residual activity [34] was 74.8%, the residual activity [35] was 107% and the residual activity [36] was 61.7%. The residual activity [37] was 89.8%, the residual activity [38] was 100% and the residual activity [39] was 82.5%. For the same compound, the residual activity [40] was 93.6%, the residual activity [41] was 77.7% and the residual activity [42] was 98.3%.
In the case of `Cc1cc2ncc(-c3ccccc3)nc2cc1C`, the residual activity [1] is reported as 98%, the residual activity [2] is reported as 96.5% and the residual activity [3] is reported as 102%. The residual activity [4] was 91.8%, the residual activity [5] was 86.7% and the residual activity [6] was 102%. For the same compound, the residual activity [7] was 96.5%, the residual activity [8] was 102% and the residual activity [9] was 92.6%. For the same compound, the residual activity [10] was 95.7%, the residual activity [11] was 89.9% and the residual activity [12] was 109%. It also gave a residual activity [13] of 96.4%, a residual activity [14] of 91.9% and a residual activity [15] of 108%. The residual activity [16] was 98%, the residual activity [17] was 103% and the residual activity [18] was 104%. For the same compound, the residual activity [19] was 90.1%, the residual activity [20] was 114% and the residual activity [21] was 97.3%. The residual activity [22] was 90.3%, the residual activity [23] was 89.9% and the residual activity [24] was 84.5%. For the same compound, the residual activity [25] was 102%, the residual activity [26] was 102% and the residual activity [27] was 99.3%. It also gave a residual activity [28] of 104%, a residual activity [29] of 95% and a residual activity [30] of 108%. It also gave a residual activity [31] of 90.5%, a residual activity [32] of 97.9% and a residual activity [33] of 99.4%. For the same compound, the residual activity [34] was 98.2%, the residual activity [35] was 87.4% and the residual activity [36] was 103%. For the same compound, the residual activity [37] was 108%, the residual activity [38] was 103% and the residual activity [39] was 91%. The residual activity [40] was 98.8%, the residual activity [41] was 103% and the residual activity [42] was 96.7%.
